Ends that are not written are not given here.
Assays:
[1] = tested on: NURR1 mRNA; experiment: Northern blot of NURR1 mRNA in primary synoviocytes; type: cell-based, human; conditions: for NURR1 mRNA levels after stimulation: 20 ng/ml PMA, 10 ng/ml TNFα, IL-1β, IL-6, 1 μM PGE2, CRH; for effect on IL-1β-induced NURR1 mRNA: IL-1β 10 ng/ml, indomethacin 2 μM
Method: (§1) Regulation of gene expression by the protein kinase A and C pathways represent important signaling events in RA synoviocytes (Ben-Av et al., 1995; Crofford et al., 1994; Firestein and Manning, 1999). […] To investigate the involvement of the protein kinase C signaling pathways in NURR regulation, synoviocytes were treated with phorbal myristic acetate (PMA). […] In contrast, dexamethasone had little effect on forskolin- or PMA-induced NUR77 levels.
(§2) In FIG. 4 total RNA was extracted and northern blot analysis was performed. Filters were hybridized with a cDNA for NURR1 or NUR77 and also with GAPDH to control for loading and transfer. Synovial explants were left untreated [C] or incubated with 10^−8M CRH for the indicated times. (FIG. 4A) Confluent monolayers of primary synoviocytes were left untreated [C] or pretreated with 10^−8M dexamethasone (DEX) for 2 h prior to the addition of 25μM forskolin (FOR) or 20 ng/ml of phorbal myristic acetate (PMA). (FIG. 4B)
Therefore the pathological importance of the NURR transcription factors in inflammatory joint disease was further examined by determining the ability of pro-inflammatory agonists to regulate NURR transcript levels in primary synoviocytes and synovium explant tissue (FIG. 6).
(§3) For FIG. 6 each membrane was reprobed with a GAPDH cDNA to control for loading and transfer. NURR1 mRNA levels were measured by northern analysis using total RNA extracted from synoviocytes left untreated [C] or cultured for the time indicated with (A) TNFα (10 ng/ml) in the presence or absence of pre-treatment with 10^−8M dexamethasone (DEX). (B) IL-1β(10 ng/ml) in the presence or absence of pretreatment with 2 μM indomethacin (INDO) or 10^−8M DEX. (C) or synovial explants cultured with IL-6 (10 ng/ml). (D) 1 μM PGE2. (E) 25 μM forskolin (FOR) or […] for 1h in the absence or presence of 5 µg/ml cycloheximide (CHX).
Northern analysis of primary RA synoviocytes were untreated (lane 1) or treated for 1 hour with TNFα (lane 2), IL-1β (lane 3), and PGE2 (lane 4). TNFα and IL-1β were used at a concentration of 10 ng/mL and PGE2 was at a concentration of 10^-6 M.
(§4) Total RNA was isolated from cultured primary synoviocytes or synovial explants. RNA was quantitated by UV absorption and 10 μg of total RNA were electrophoresed on a standard northern gel and transferred to nylon membrane (BioRad, Richmond, Calif.). NURR1 and NUR77 cDNA probes (Murphy and Conneely, 1997), spanning the amino terminal region to avoid cross-hybridization, were radiolabeled to a high specific activity using [α-^32P] dCTP and a random primer labeling system (Promega, Madison, Wis.). Blots were exposed to film at −80° C. using intensifying screens and autoradiographic intensity was quantitated using an imaging densitometer.

[2] = tested on: NUR77 mRNA; experiment: Northern blot of NUR77 mRNA in primary synoviocytes; type: cell-based, human; conditions: 25 μM forskolin, 20 ng/ml PMA, CRH
Method: as §1
In FIG. 4 total RNA was extracted and northern blot analysis was performed. Filters were hybridized with a cDNA for NURR1 or NUR77 and also with GAPDH to control for loading and transfer. Synovial explants were left untreated [C] or incubated with 10^−8M CRH for the indicated times. […]
Dexamethasone (10^−8M) inhibited the TNFα, IL-1β (FIGS. 6A and B) and PGE2-stimulated NURR1 MRNA in synoviocytes and CRH-induced NURR1 expression in synovium explants. […] For each northern blot shown in FIG. 6, NUR77 mRNA levels were also analyzed. […]
Total RNA was isolated from cultured primary synoviocytes or synovial explants. RNA was quantitated by UV absorption and 10 μg of total RNA were electrophoresed on a standard northern gel and transferred to nylon membrane (BioRad, Richmond, Calif.). […] Blots were exposed to film at −80° C. using intensifying screens and autoradiographic intensity was quantitated using an imaging densitometer.

[3] = tested on: CRH R1; conditions: cited from earlier work
[4] = tested on: NUR77 mRNA; experiment: Northern blot of NUR77 mRNA in synovium explants; type: cell-based, human; conditions: CRH 10^−8 M
Method: (§5) To determine whether the NURR subfamily contribute to CRH signaling in a pathological context, freshly excised RA (FIG. 4A) and PsA synovium explants were incubated with CRH (10^−8 M) and examined for its ability to induce expression of NURR1 and NUR77 transcripts. […] Furthermore, analysis of synovium explants indicates higher endogenous and CRH-inducible NURR1 mRNA compared to NUR77 transcript levels.
as §2, §4

[5] = tested on: NURR1 mRNA; experiment: Northern blot of NURR1 mRNA in synovium explants; type: cell-based, human; conditions: CRH 10^−8 M
Method: as §5, §2, §3, §4

[6] = dexamethasone 10^−8M, cycloheximide 5 µg/ml

CCCCCCCCCCCCCC(=O)O[C@@H]1[C@@H](C)[C@@]2(O)[C@@H](C=C(CO)C[C@]3(O)C(=O)C(C)=C[C@@H]23)[C@@H]2C(C)(C)[C@]12OC(C)=O [PMA, phorbal myristic acetate, reference compound]
NURR1 mRNA levels after stimulation ([1]; 25 μM forskolin): no stimulatory effects
NUR77 mRNA levels after stimulation [2]: modestly up-regulated

C[C@@H]1C[C@H]2[C@@H]3CCC4=CC(=O)C=C[C@]4(C)[C@@]3(F)[C@@H](O)C[C@]2(C)[C@@]1(O)C(=O)CO [dexamethasone]
basal / endogenous NURR1 expression [1, 6]: no effect

CCCCN(CC)c1nc(C)nc2c1c(C)c(C)n2-c1c(C)cc(C)cc1C [antalarmin]
CRH antagonism at sites of inflammation in vivo [3]: clinically effective CRH antagonist at sites of inflammation

COc1ccc2c(c1)c(CC(=O)O)c(C)n2C(=O)c1ccc(Cl)cc1 [indomethacin]
effect on IL-1β-induced NURR1 mRNA ([1]; dexamethasone 10^−8M): not blocked

CRH: Corticotropin Releasing Hormone, a major regulator of the hypothalamic pituitary axis (SEEPPISLDLTFHLLREVLEMARAEQLAQQAHSNRKLMEII; ends and bridges not checked; UniProt P06850 154-194, looked up)
NURR1 mRNA levels after stimulation ([1]; 25 μM forskolin): not observed
NUR77 mRNA levels after stimulation [2]: not observed
NUR77 mRNA induction in synovium explants ([4]; RA and PsA synovium explants): rapidly induced
time to NUR77 mRNA induction ([4]; synovium explants): ≤ 1 h
time to decline of NUR77 mRNA to basal levels ([4]; synovium explants): ≤ 3 h
NURR1 mRNA induction in synovium explants ([5]; RA and PsA synovium explants, IL-6 10 ng/ml): rapidly induced
time to NURR1 mRNA induction ([5]; synovium explants): ≤ 1 h
time to decline of NURR1 mRNA to basal levels ([5]; synovium explants): ≤ 3 h

C[C@@H]1C[C@@H]([C@H](O)CC2CC(=O)NC(=O)C2)C(=O)[C@@H](C)C1 [Cycloheximide, cycloheximide]
effect on forskolin-induced NURR1 expression ([1]; 25 μM forskolin, dexamethasone 10^−8M pre-treatment 2 h, cycloheximide 5 µg/ml): robustly enhanced
effect on IL-1β-induced NURR1 mRNA ([1]; dexamethasone 10^−8M): robustly enhanced
effect on TNFα-stimulated NURR1 mRNA ([1]; TNFα 10 ng/ml, dexamethasone 10^−8M): robustly enhanced
basal / endogenous NURR1 expression [1, 6]: increased
effect on PGE2-stimulated NURR1 mRNA ([1]; dexamethasone 10^−8M, cycloheximide 5 µg/ml, 1M PGE2 for 1h): robustly enhanced
